Values after ≈ are worked out from the molar mass of the structure shown. “Also recorded” adds a separate entry of the source.
Columns and labels:
[1] = system: Staphylococcus aureus ATCC 6538P; assay: antibacterial activity by agar dilution method; assay type: cell-based; conditions: ATCC6538P, pH 7.0
Text: (§1) The antibacterial activity of the compound S551-II-A against various microorganism by agar dilution method (pH 7.0) is shown in Table 2.

[2] = system: Escherichia coli ATCC 3655; assay: antibacterial activity by agar dilution method; assay type: cell-based; conditions: ATCC3655, pH 7.0
Text: as §1

[3] = system: Klebsiella pneumoniae ATCC 10031; assay: antibacterial activity by agar dilution method; assay type: cell-based; conditions: ATCC10031, pH 7.0
Text: as §1

[4] = system: Proteus vulgaris ATCC 6897; assay: antibacterial activity by agar dilution method; assay type: cell-based; conditions: ATCC6897, pH 7.0
Text: as §1

[5] = system: Bacilus subtilis ATCC 10707; assay: antibacterial activity by agar dilution method; assay type: cell-based; conditions: pH 7.0
Text: as §1

Solubilities = assay type: physicochemical; conditions: solvents named in the value
Irycoderma T-1 ATCC 9645 = assay: antibacterial activity by disc method; assay type: cell-based
Text: (§2) The antibacterial activity of the compound S551-II against various microorganisms by disc method (pH: no adjustment) is shown in the following Table 1.

[6] = system: Escherichia coli IAM 1268; assay: antibacterial activity by disc method; assay type: cell-based; conditions: IAM1268, pH: no adjustment
Text: as §2

Saccharomyces rouxii M-9 = assay: antibacterial activity by disc method; assay type: cell-based; conditions: Zygosaccharomyces rouxii, M9, pH: no adjustment
Text: as §2

gypseum IFO 5948 = assay: antibacterial activity by disc method; assay type: cell-based; conditions: pH: no adjustment
Text: as §2

[7] = system: Aspergillus niger IAM 2026; assay: antibacterial activity by disc method; assay type: cell-based; conditions: IAM2026, pH: no adjustment
Text: as §2

[8] = system: Escherichia coli ATCC 3655; assay: antibacterial activity by disc method; assay type: cell-based; conditions: ATCC3655, pH: no adjustment
Text: as §2

[9] = system: Klebsiella pneumoniae 348; assay: antibacterial activity by disc method; assay type: cell-based; conditions: pH: no adjustment
Text: as §2

[10] = system: Chaetomium globosum ATCC 6025; assay: antibacterial activity by disc method; assay type: cell-based; conditions: ATCC6025, pH: no adjustment
Text: as §2

[11] = system: Alternaria solani IFO 5924; assay: antibacterial activity by disc method; assay type: cell-based; conditions: IFO5924, pH: no adjustment
Text: as §2

[12] = system: Pseudomonas fluorescens ATCC 27; assay: antibacterial activity by disc method; assay type: cell-based; conditions: ATCC27, pH: no adjustment
Text: as §2

[13] = system: Bacillus subtilis PCI 219; assay: antibacterial activity by disc method; assay type: cell-based; conditions: PCI219, pH: no adjustment
Text: as §2

[14] = system: Staphylococcus aureus FAD 209P; assay: antibacterial activity by disc method; assay type: cell-based; conditions: pH: no adjustment
Text: as §2

[15] = system: Penicillium chrysogenum IAM 7142; assay: antibacterial activity by disc method; assay type: cell-based; conditions: IAM7142, pH: no adjustment
Text: as §2

[16] = system: Myrothecium verrucaria IAM 5063; assay: antibacterial activity by disc method; assay type: cell-based; conditions: Albifimbria verrucaria, IAM5063, pH: no adjustment
Text: as §2

Diplococcus pneumoniae = assay: antibacterial activity by disc method; assay type: cell-based; conditions: Streptococcus pneumoniae, pH: no adjustment
Text: as §2

[17] = system: Proteus vulgaris HX19 IAM 1025; assay: antibacterial activity by disc method; assay type: cell-based; conditions: IAM1025, pH: no adjustment
Text: as §2

Bacillus subtilis NA 64 = assay: antibacterial activity by disc method; assay type: cell-based; conditions: NA64, pH: no adjustment
Text: as §2

Salmonella enteritidis = assay: antibacterial activity by disc method; assay type: cell-based; conditions: Salmonella enterica, pH: no adjustment
Text: as §2

[18] = system: Cladosporium herbarum Link Fr IAM 5059; assay: antibacterial activity by disc method; assay type: cell-based; conditions: IAM5059, pH: no adjustment
Text: as §2

Sarcina lutea IAM 1099 = assay: antibacterial activity by disc method; assay type: cell-based; conditions: Micrococcus luteus, IAM1099, pH: no adjustment
Text: as §2

[19] = system: Saccharomyces cerevisiae IAM 4485; assay: antibacterial activity by disc method; assay type: cell-based; conditions: IAM4485, pH: no adjustment
Text: as §2

[20] = system: Candida albicans IAM 4888; assay: antibacterial activity by disc method; assay type: cell-based; conditions: IAM4888, pH: no adjustment
Text: as §2

Shigella sonnei E23 = assay: antibacterial activity by disc method; assay type: cell-based
Text: as §2

[21] = system: Trycophyton mentagrophytes IAM 5064; assay: antibacterial activity by disc method; assay type: cell-based; conditions: pH: no adjustment
Text: as §2

[22] = system: Penicillium chrysogenum Q 176; assay: antibacterial activity by disc method; assay type: cell-based; conditions: Q176, pH: no adjustment
Text: as §2

[23] = system: Mucor spinescens IAM 6071; assay: antibacterial activity by disc method; assay type: cell-based; conditions: IAM6071, pH: no adjustment
Text: as §2

[24] = system: Aspergillus niger ATCC 6275; assay: antibacterial activity by disc method; assay type: cell-based; conditions: ATCC6275, pH: no adjustment
Text: as §2

[25] = system: Bacillus subtilis IAM 1026; assay: antibacterial activity by disc method; assay type: cell-based; conditions: IAM1026, pH: no adjustment
Text: as §2

[26] = system: Serratia marcescens IAM 1022; assay: antibacterial activity by disc method; assay type: cell-based; conditions: IAM1022, pH: no adjustment
Text: as §2

[27] = system: Dusariium moniliforme IAM 5062; assay: antibacterial activity by disc method; assay type: cell-based; conditions: pH: no adjustment
Text: as §2

[28] = system: Pseudomonas aeruginosa IAM 1156; assay: antibacterial activity by disc method; assay type: cell-based; conditions: IAM1156, pH: no adjustment
Text: as §2

[29] = system: Aspergillus oryzae NRRL 692; assay: antibacterial activity by disc method; assay type: cell-based; conditions: NRRL692, pH: no adjustment
Text: as §2

O=C(/C=C/c1cc[nH]c1)OC1=C(O)CCC1=O [Compound S551-II-A]
MIC [1]: 200 µg/mL (≈ 858 µM)
MIC [2]: 500 µg/mL (≈ 2140 µM)
MIC [3]: 200 µg/mL (≈ 858 µM)
MIC [4]: 25 µg/mL (≈ 107 µM)
MIC [5]: 200 µg/mL (≈ 858 µM)
Solubilities (Solubilities): soluble in acetone, dimethylsulfoxide and alkaline solution; also recorded: slightly soluble in methanol; also recorded: insoluble in benzene, chloroform ethylether and hexane

CC(=O)OC1CC(/C=C/C(=O)OC2=C(O)CCC2=O)=CN1 (centres unmarked) [Compound S551-II]
MIC (Irycoderma T-1 ATCC 9645): 16 µg/mL (≈ 54.6 µM)
MIC [6]: 1000 µg/mL (≈ 3410 µM)
MIC (Saccharomyces rouxii M-9): 100 µg/mL (≈ 341 µM)
MIC (gypseum IFO 5948): 125 µg/mL (≈ 426 µM)
MIC [7]: 250 µg/mL (≈ 852 µM)
MIC [8]: 500 µg/mL (≈ 1700 µM)
MIC [9]: > 1000 µg/mL
MIC [10]: 500 µg/mL (≈ 1700 µM)
MIC [11]: 8 µg/mL (≈ 27.3 µM)
MIC [12]: > 1000 µg/mL
MIC [13]: 62.5 µg/mL (≈ 213 µM)
MIC [14]: 62.5 µg/mL (≈ 213 µM)
MIC [15]: 125 µg/mL (≈ 426 µM)
MIC [16]: 125 µg/mL (≈ 426 µM)
MIC (Diplococcus pneumoniae): 1000 µg/mL (≈ 3410 µM)
MIC [17]: > 1000 µg/mL
MIC (Bacillus subtilis NA 64): 62.5 µg/mL (≈ 213 µM)
MIC (Salmonella enteritidis): > 1000 µg/mL
MIC [18]: 31.2 µg/mL (≈ 106 µM)
MIC (Sarcina lutea IAM 1099): 125 µg/mL (≈ 426 µM)
MIC [19]: 1000 µg/mL (≈ 3410 µM)
MIC [20]: > 1000 µg/mL
MIC (Shigella sonnei E23): > 100 µg/mL
MIC [21]: 4 µg/mL (≈ 13.6 µM)
MIC [22]: 62.5 µg/mL (≈ 213 µM)
MIC [23]: 500 µg/mL (≈ 1700 µM)
MIC [24]: 1000 µg/mL (≈ 3410 µM)
MIC [25]: 31.2 µg/mL (≈ 106 µM)
MIC [26]: > 1000 µg/mL
MIC [27]: 125 µg/mL (≈ 426 µM)
MIC [28]: > 1000 µg/mL
MIC [29]: 62.5 µg/mL (≈ 213 µM)

— patent publication US4180436A, “Antibacterial compounds and process for production thereof” (Kyowa Hakko Kogyo Co., Ltd., priority 1977, dated 1979)
